Reference: patent US10206394B2, “Herbicidal compounds” (Syngenta Participations AG, priority 2014, dated 2019)
Like-named read-outs stand apart in the source and are kept apart here.

Key:
Experiment in all cases: Glasshouse assay for herbicidal activity (pre- and post-emergence), percentage phytotoxicity
Assay type in all cases: in vivo
[1] = system: Alopecurus myosuroides (ALOMY); details: Alopecurus myosuroides
In short: (§1)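 Visually rated damage, 0–100%. PRE spray 1 d after sowing, scored 20 DAA; POST spray ~12 d, scored 15 DAA. Glasshouse at 65% humidity, 16 h day.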

Avena fatua (AVEFA) = details: Avena fatua
In short: as §1

[2] = system: Echinochloa crus-galli (ECHCG); details: Echinochloa crus-galli
In short: as §1

Lolium perenne (LOLPE) = details: Lolium perenne
In short: as §1

[3] = post-emergence, 360 h, POST-emergence, rate 250 g/ha, visual score 15 DAA (100%=total damage, 0%=no damage), read-out: Post-emergence herbicidal activity (percentage phytotoxicity) ALOMY POST
[4] = pre-emergence, 480 h, PRE-emergence, rate 250 g/ha, visual score 20 DAA (100%=total damage, 0%=no damage), read-out: Pre-emergence herbicidal activity (percentage phytotoxicity) ALOMY PRE
[5] = post-emergence, 360 h, POST-emergence, rate 250 g/ha, visual score 15 DAA (100%=total damage, 0%=no damage), read-out: Post-emergence herbicidal activity (percentage phytotoxicity) AVEFA POST
[6] = pre-emergence, 480 h, PRE-emergence, rate 250 g/ha, visual score 20 DAA (100%=total damage, 0%=no damage), read-out: Pre-emergence herbicidal activity (percentage phytotoxicity) AVEFA PRE
[7] = post-emergence, 360 h, POST-emergence, rate 250 g/ha, visual score 15 DAA (100%=total damage, 0%=no damage), read-out: Post-emergence herbicidal activity (percentage phytotoxicity) ECHCG POST
[8] = pre-emergence, 480 h, PRE-emergence, rate 250 g/ha, visual score 20 DAA (100%=total damage, 0%=no damage), read-out: Pre-emergence herbicidal activity (percentage phytotoxicity) ECHCG PRE
[9] = post-emergence, 360 h, POST-emergence, rate 250 g/ha, visual score 15 DAA (100%=total damage, 0%=no damage), read-out: Post-emergence herbicidal activity (percentage phytotoxicity) LOLPE POST
[10] = pre-emergence, 480 h, PRE-emergence, rate 250 g/ha, visual score 20 DAA (100%=total damage, 0%=no damage), read-out: Pre-emergence herbicidal activity (percentage phytotoxicity) LOLPE PRE
[11] = post-emergence, 360 h, Rate 250 g/ha, post-emergence, visual assessment 15 DAA, 100%=total damage, 0%=no damage, read-out: Post-emergence herbicidal activity (percentage phytotoxicity) ALOMY POST
[12] = pre-emergence, 480 h, Rate 250 g/ha, pre-emergence, visual assessment 20 DAA, 100%=total damage, 0%=no damage, read-out: Pre-emergence herbicidal activity (percentage phytotoxicity) ALOMY PRE
[13] = post-emergence, 360 h, Rate 250 g/ha, post-emergence, visual assessment 15 DAA, 100%=total damage, 0%=no damage, read-out: Post-emergence herbicidal activity (percentage phytotoxicity) AVEFA POST
[14] = pre-emergence, 480 h, Rate 250 g/ha, pre-emergence, visual assessment 20 DAA, 100%=total damage, 0%=no damage, read-out: Pre-emergence herbicidal activity (percentage phytotoxicity) AVEFA PRE
[15] = post-emergence, 360 h, Rate 250 g/ha, post-emergence, visual assessment 15 DAA, 100%=total damage, 0%=no damage, read-out: Post-emergence herbicidal activity (percentage phytotoxicity) ECHCG POST
[16] = pre-emergence, 480 h, Rate 250 g/ha, pre-emergence, visual assessment 20 DAA, 100%=total damage, 0%=no damage, read-out: Pre-emergence herbicidal activity (percentage phytotoxicity) ECHCG PRE
[17] = post-emergence, 360 h, Rate 250 g/ha, post-emergence, visual assessment 15 DAA, 100%=total damage, 0%=no damage, read-out: Post-emergence herbicidal activity (percentage phytotoxicity) LOLPE POST
[18] = pre-emergence, 480 h, Rate 250 g/ha, pre-emergence, visual assessment 20 DAA, 100%=total damage, 0%=no damage, read-out: Pre-emergence herbicidal activity (percentage phytotoxicity) LOLPE PRE
[19] = post-emergence, 360 h, 250 g/ha, post-emergence, 15 DAA, visual assessment (100%=total damage, 0%=no damage), read-out: Post-emergence herbicidal activity (percentage phytotoxicity) ALOMY POST
[20] = pre-emergence, 480 h, 250 g/ha, pre-emergence, 20 DAA, visual assessment (100%=total damage, 0%=no damage), read-out: Pre-emergence herbicidal activity (percentage phytotoxicity) ALOMY PRE
[21] = post-emergence, 360 h, 250 g/ha, post-emergence, 15 DAA, visual assessment (100%=total damage, 0%=no damage), read-out: Post-emergence herbicidal activity (percentage phytotoxicity) AVEFA POST
[22] = pre-emergence, 480 h, 250 g/ha, pre-emergence, 20 DAA, visual assessment (100%=total damage, 0%=no damage), read-out: Pre-emergence herbicidal activity (percentage phytotoxicity) AVEFA PRE
[23] = post-emergence, 360 h, 250 g/ha, post-emergence, 15 DAA, visual assessment (100%=total damage, 0%=no damage), read-out: Post-emergence herbicidal activity (percentage phytotoxicity) ECHCG POST
[24] = pre-emergence, 480 h, 250 g/ha, pre-emergence, 20 DAA, visual assessment (100%=total damage, 0%=no damage), read-out: Pre-emergence herbicidal activity (percentage phytotoxicity) ECHCG PRE
[25] = post-emergence, 360 h, 250 g/ha, post-emergence, 15 DAA, visual assessment (100%=total damage, 0%=no damage), read-out: Post-emergence herbicidal activity (percentage phytotoxicity) LOLPE POST
[26] = pre-emergence, 480 h, 250 g/ha, pre-emergence, 20 DAA, visual assessment (100%=total damage, 0%=no damage), read-out: Pre-emergence herbicidal activity (percentage phytotoxicity) LOLPE PRE

| SMILES | pest or weed control at 250 g/ha [1, 3] [%] | pest or weed control at 250 g/ha [1, 4] [%] | pest or weed control at 250 g/ha (Avena fatua (AVEFA); [5]) [%] | pest or weed control at 250 g/ha (Avena fatua (AVEFA); [6]) [%] | pest or weed control at 250 g/ha [2, 7] [%] | pest or weed control at 250 g/ha [2, 8] [%] | pest or weed control at 250 g/ha (Lolium perenne (LOLPE); [9]) [%] | pest or weed control at 250 g/ha (Lolium perenne (LOLPE); [10]) [%] | pest or weed control at 250 g/ha [1, 11] [%] | pest or weed control at 250 g/ha [1, 12] [%] | pest or weed control at 250 g/ha (Avena fatua (AVEFA); [13]) [%] | pest or weed control at 250 g/ha (Avena fatua (AVEFA); [14]) [%] | pest or weed control at 250 g/ha [2, 15] [%] | pest or weed control at 250 g/ha [2, 16] [%] | pest or weed control at 250 g/ha (Lolium perenne (LOLPE); [17]) [%] | pest or weed control at 250 g/ha (Lolium perenne (LOLPE); [18]) [%] | pest or weed control at 250 g/ha [1, 19] [%] | pest or weed control at 250 g/ha [1, 20] [%] | pest or weed control at 250 g/ha (Avena fatua (AVEFA); [21]) [%] | pest or weed control at 250 g/ha (Avena fatua (AVEFA); [22]) [%] | further results |
| --- | --- | --- | --- | --- | --- | --- | --- | --- | --- | --- | --- | --- | --- | --- | --- | --- | --- | --- | --- | --- | --- |
| Cc1cc(-c2ncc(Cl)cc2F)cc(C)c1C1C(=O)CC(CC(=O)NCC(C)(C)C)C1=O (centres unmarked) [Compound B178] | 100 | 100 | 90 | 90 | 100 | 100 | 100 | 100 |  |  |  |  |  |  |  |  |  |  |  |  |  |
| C=CCNC(=O)CC1CC(=O)C(c2c(C)cc(-c3ccc(F)cn3)cc2C)C1=O (centres unmarked) [Compound B395] |  |  |  |  |  |  |  |  | 100 | 100 | 100 | 100 | 100 | 100 | 90 | 100 |  |  |  |  |  |
| Cc1cc(C)c(C2C(=O)CC(CC(=O)NC3(C)CCCC3)C2=O)c(C)c1 (centres unmarked) [Compound B41] |  |  |  |  |  |  |  |  |  |  |  |  |  |  |  |  | 80 | 70 | 70 | 30 | pest or weed control at 250 g/ha [2, 23]: 60%; pest or weed control at 250 g/ha [2, 24]: 60%; pest or weed control at 250 g/ha (Lolium perenne (LOLPE); [25]): 60%; pest or weed control at 250 g/ha (Lolium perenne (LOLPE); [26]): 70% |
| Cc1cc(-n2cc(Cl)cn2)cc(C)c1C1C(=O)CC(CC(=O)NC/C=C/Cl)C1=O (centres unmarked) [Compound B308] | 90 | 90 | 100 | 80 | 100 | 80 | 60 | 80 |  |  |  |  |  |  |  |  |  |  |  |  |  |
| Cc1cc(-c2ccc(F)cn2)cc(C)c1C1C(=O)CC(CC(=O)NC(C)C)C1=O (centres unmarked) [Compound B385] |  |  |  |  |  |  |  |  | 100 | 100 | 100 | 100 | 100 | 100 | 100 | 100 |  |  |  |  |  |
| C/C=C/c1cc(C)c(C2C(=O)CC(CC(=O)N3CCOCC3)C2=O)c(C)c1 (centres unmarked) [Compound B172] | 90 | 80 | 90 | 80 | 100 | 100 | 90 | 100 |  |  |  |  |  |  |  |  |  |  |  |  |  |
| Cc1cc(-c2ncc(F)cn2)cc(Cl)c1C1C(=O)CC(CC(=O)NC(C)(C)C)C1=O (centres unmarked) [Compound B405] |  |  |  |  |  |  |  |  | 100 | 90 | 100 | 90 | 100 | 100 | 100 | 100 |  |  |  |  |  |
| Cc1cc(-c2ncc(C#N)cc2Cl)cc(C)c1C1C(=O)CC(CC(=O)NC(C)(C)C)C1=O (centres unmarked) [Compound B83] |  |  |  |  |  |  |  |  |  |  |  |  |  |  |  |  | 70 | 80 | 80 | 30 | pest or weed control at 250 g/ha [2, 23]: 90%; pest or weed control at 250 g/ha [2, 24]: 90%; pest or weed control at 250 g/ha (Lolium perenne (LOLPE); [25]): 80%; pest or weed control at 250 g/ha (Lolium perenne (LOLPE); [26]): 80% |
| Cc1cc(C)c(C2C(=O)CC(CC(=O)NC3CC3(F)F)C2=O)c(C)c1 (centres unmarked) [Compound B98] |  |  |  |  |  |  |  |  |  |  |  |  |  |  |  |  | 60 | 60 | 20 | 0 | pest or weed control at 250 g/ha [2, 23]: 60%; pest or weed control at 250 g/ha [2, 24]: 80%; pest or weed control at 250 g/ha (Lolium perenne (LOLPE); [25]): 80%; pest or weed control at 250 g/ha (Lolium perenne (LOLPE); [26]): 90% |
| C=CC(C)NC(=O)CC1CC(=O)C(c2c(C)cc(-c3ncc(F)cn3)cc2C)C1=O (centres unmarked) [Compound B328] | 100 | 100 | 100 | 100 | 100 | 100 | 100 | 100 |  |  |  |  |  |  |  |  |  |  |  |  |  |
